The results in this text go back to patent US7803801B2, “Aminopyridine compounds having Syk inhibitory activity” (Japan Tobacco, Inc., priority 2005, dated 2010).

Where two headings read alike, the source gives them in different places.

The target of test [1] is GST-Syk Full Protein (human) (Homo sapiens, UniProt P43405). The test is described as follows: Syk kinase inhibition test (HTRF method). In kind it is biochemical. The method in brief:
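HTRF read-out: after EDTA termination and 1 h with XL665-streptavidin and Eu-anti-phosphotyrosine, the 665/620 nm ratio was measured. The reaction ran 30 min at 20–25 °C with final 6.4 nM human GST-Syk, 250 nM biotinylated peptide, 100 μM ATP, pH 7.0 HEPES buffer, 2% DMSO.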
(TR-FRET usually uses a lanthanide donor and a delayed reading to cut background.)

Test [2] relates to cultured human mast cells. The test is described as follows: Degranulation inhibition test using cultured human mast cells (IgE cross-linking, β-Hexosaminidase release). It is filed as cell-based. The settings on record: Mast cell, cultured human mast cells, read-out: human degranulation ave. IC50. On the procedure: Degranulation Inhibition Test Using Cultured Human Mast Cells
(1) Separation of Hematopoietic Stem Cells;
After 10 to 60 mL of umbilical cord blood collected with heparin was diluted with an equivalent amount of buffer (0.5% BSA, 2 mM EDTA/PBS-), it was superposed on Ficoll-Paque (Amersham Pharmacia Biotech) (Ficoll/Blood (1:2)) and mononuclear leukocyte fraction was collected by centrifuging it at 400 G (1350 rpm) 4° C. for 30 minutes. After centrifugal washing (1500 rpm, 5 min, 4° C.×3) with buffer, the number of cells was counted and 0.1 mL of CD34 Progenitor Cell Isolation Kit (Miltenyi Biotec), Reagent A1 (Fc blocking) was added for 1×10^8 cells. After agitation, 0.1 mL of Reagent A2 (CD34 antibody-hapten) was added (final volume 0.5 mL/1×10^8 cells) and incubated at 9° C. for further 15 minutes after agitation. After centrifugal washing (1500 rpm, 5 min, 4° C.×3), it was resuspeded in a buffer (0.4 mL) and 0.1 mL of Reagent B (anti hapten antibody-microbeads) was added and agitated (final volume 0.5 mL/1×10^8 cells) and incubated at 9° C. for further 15 minutes. After centrifugal washing (1500 rpm, 5 min, 4° C.×2), it was resuspeded in a buffer (0.5 mL) and loaded on CS column (Miltenyi Biotec) set in MACS (MAgnetic Cell Sorting system; Miltenyi Biotec, Daiichi Pure Chemicals) and washed with 30 mL of buffer to remove CD34^− cells. The column was separated from MACS and eluted with 30 mL of buffer and CD34^+ cells bound to the column were collected and used as a hematopoietic stem cell population.
(2) Acquisition of Human Mast Cells by Long-Term Culturing of Hematopoietic Stem Cells;
The CD34^+ cells separated in (1) were resuspended in Iscove's Modified Dulbecco's Medium (IMDM, Gibco) containing human (rh)SCF (1 μg/mL, Peprotech), rhIL-6 (0.5 μg/mL, Peprotech), rhIL-3 (10 ng/mL, Peprotech), 1% Insulin-Transferrin (Gibco), 5×10^−5M 2-ME (Gibco), 0.1% BSA (Sigma) in a density of 1×10^6 cells/ml and disseminated on 24-well culture plate with a dose of 0.1 mL/well and 0.9 ml of IMDM (Methocult SF^BIT StemCell technology) containing 0.9% methyl cellulose was added and culturing was started. The above culture medium (excluding methyl cellulose) was added in a week and after that 100 μL/well of the above culture medium (further excluding IL-3) was added at an interval of every once a week so that cells were diluted to maintain 10^5 cells/mL/well order and cultured more than about 8 weeks and thereby human culture mast cells were obtained.
(3) Expression Enhancement of FcεRI and Inhibition Test IgE Cross-Linking Stimulating Degranulation;
rhIL-4 (final concentration 1 ng/mL, R & D) and Homo sapiens(h) IgE (final concentration 0.5 μg/mL, CHEMICON) were added to the obtained human culture mast cells, and they were incubated for 5 days to enhance the expression of FcεRI. After incubation, cells were collected and, after centrifugal washing (IMDM), they were disseminated on 96-well culture plate in 5×10^4 cells/80 μL/well.
10 μL of a compound 10-fold diluted with IMDM after dissolved in DMSO (DMSO final concentration 0.1%) was added and reacted at 37° C. for 10 minutes. Further, 10 μL of anti-hIgE Ab (CHEMICON) adjusted to 100 μg/mL (final concentration 10 μg/mL) was added and degranulation was caused by being stimulated at 37° C. for 30 minutes. After centrifugation, 50 μL/well of the supernatant was collected and stored at −40° C. untill the quantity of degranulation was measured. The measurement of quantity of degranulation was performed using enzymatic activity of β-Hexosaminidase contained in the granulates as an index. That is, an equivalent amount of p-nitrophenyl-N-acetyl-β-D-glucosaminide (1 mM) (containing 0.1% Triton X-100) which is a substrate of β-Hexosaminidase was added to 50 μL of the culture filtrate, and after reacted at 37° C. for 2 hours, the reaction was terminated by using 100 μL of Carbonate buffer (0.1M, pH 10). […]

Where [3] appears, read: HTRF, 100 μM ATP, 30 min room temperature, average, read-out: sykHTRF ave IC50.
Where [4] appears, read: anti-hIgE stimulation, β-Hexosaminidase index, average.
The mark [5] stands for this setting: Tables 1-x, compounds A, read-out: sykHTRF ave IC50.

For the compound `Cc1ccnc(Nc2cccc(-c3cnc([C@H]4CC[C@H](C(=O)N5CCN(C)CC5)CC4)s3)n2)c1` [Compound A-300], the IC50 in test [1] (setting [3]) and in test [2] (setting [4]) was 100 to 1000 nM each time.

`Cc1ccnc(Nc2cccc(-c3cnc(COCC(=O)N4CCC(O)CC4)s3)n2)c1` [Compound A-369]: the IC50 (as a rule, the point on the concentration scale where inhibition reaches its midpoint) in test [1] (setting [3]) is 100 to 1000 nM; in test [2] (setting [4]), greater than 1000 nM.

With `Cc1ccnc(Nc2cccc(-c3cnc(N4CCC[C@H]4C(N)=O)s3)n2)c1` [Compound A-528, (S)-1-{5-[6-(4-methylpyridin-2-ylamino)pyridin-2-yl]thiazol-2-yl}pyrrolidine-2-carboxamide], the IC50 in test [1] (setting [5]) was less than 100 nM; in test [2] (Tables 1-x, compounds A) it was less than 100 nM.

In the case of `CC(=O)N[C@@H](CCC(=O)O)c1ncc(-c2cccc(Nc3cc(C)ccn3)n2)s1` [Compound A-103], the half-inhibitory concentration (IC50) in test [1] (setting [3]) is 100 to 1000 nM; in test [2] (setting [4]), greater than 1000 nM.

On to `Cc1ccnc(Nc2cccc(-c3cnc(N(C)[C@H]4CC[C@H](CC(=O)O)CC4)s3)n2)c1` [Compound A-610, [trans-4-(N-methyl-N-{5-[6-(4-methylpyridin-2-ylamino)pyridin-2-yl]thiazol-2-yl}amino)cyclohexyl]acetic acid], for which the half-maximal inhibitory concentration (IC50) in test [1] (setting [5]) is less than 100 nM; in test [2] (Tables 1-x, compounds A), 100 to 1000 nM.

Turning to `Cc1ccnc(Nc2cccc(-c3cnc(N4CCN(C(=O)N(C)C)CC4)s3)n2)c1` [Compound A-441, N,N-dimethyl-4-{5-[6-(4-methylpyridin-2-ylamino)pyridin-2-yl]thiazol-2-yl}piperazine-1-carboxamide], the concentration for half-maximal inhibition (IC50) in test [1] (setting [5]) was less than 100 nM; in test [2] (Tables 1-x, compounds A), 100 to 1000 nM.

Turning to `Cc1ccnc(Nc2cccc(-c3cnc([C@H](C)NS(C)(=O)=O)s3)n2)c1` [Compound A-58], the half-inhibitory concentration (IC50) in test [1] (setting [3]) and in test [2] (setting [4]) was 100 to 1000 nM throughout.

Regarding `Cc1ccnc(Nc2cccc(-c3cnc(N(C)C[C@H]4CC[C@H](C(=O)O)CC4)s3)n2)c1` [Compound A-16, trans-4-[(N-methyl-N-{5-[6-(4-methylpyridin-2-ylamino)pyridin-2-yl]thiazol-2-yl}amino)methyl]cyclohexanecarboxylic acid], the IC50 was less than 100 nM in test [1] (setting [3]) and 100 to 1000 nM in test [2] (setting [4]).

Consider `CNC(=O)N1CCC(c2ncc(-c3cccc(Nc4cc(C)ccn4)n3)s2)CC1` [Compound A-359], for which the IC50 in test [1] (setting [3]) and in test [2] (setting [4]) was 100 to 1000 nM in each case.

Consider `COc1ccnc(Nc2cccc(-c3cnc(N4CCN(C(C)=O)CC4)s3)n2)c1` [Compound A-442, 1-(4-{5-[6-(4-methoxypyridin-2-ylamino)pyridin-2-yl]thiazol-2-yl}piperazin-1-yl)ethanone], for which the IC50 in test [1] (setting [5]) was less than 100 nM; in test [2] (Tables 1-x, compounds A), 100 to 1000 nM.

In the case of `Cc1ccnc(Nc2cccc(-c3cnc(CC4CCC(O)CC4)s3)n2)c1` (centres unmarked) [Compound A-341, 4-{5-[6-(4-methylpyridin-2-ylamino)pyridin-2-yl]thiazol-2-ylmethyl}cyclohexanol], the IC50 in test [1] (setting [3]) is less than 100 nM; in test [2] (setting [4]), 100 to 1000 nM.

Turning to `CC(=O)N[C@@H](C)c1ncc(-c2cccc(Nc3cc(Cl)ccn3)n2)s1` [Compound A-81, N—((S)-1-{5-[6-(4-chloropyridin-2-ylamino)pyridin-2-yl]thiazol-2-yl}ethyl)acetamide], the IC50 was less than 100 nM in test [1] (setting [3]) and 100 to 1000 nM in test [2] (setting [4]).

As for `Cc1ccnc(Nc2cccc(-c3cnc(CCCCC(=O)O)s3)n2)c1` [Compound A-69, 5-{5-[6-(4-methylpyridin-2-ylamino)pyridin-2-yl]thiazol-2-yl}pentanoic acid], the values for the half-inhibitory concentration (IC50) in test [1] (setting [3]) and in test [2] (setting [4]) were less than 100 nM and greater than 1000 nM, respectively.

As to `CC(=O)c1ccc(-c2cccc(Nc3ccccn3)n2)s1` [Compound B-67], the IC50 in test [1] (Tables 2-x, thiophene compounds B, read-out: sykHTRK ave IC50) is 100 to 1000 nM; in test [2] (Tables 2-x, thiophene compounds B), greater than 1000 nM.

For the compound `Cc1ccnc(Nc2cccc(-c3cnc(CCO)s3)n2)c1` [Compound A-205, 2-{5-[6-(4-methylpyridin-2-ylamino)pyridin-2-yl]thiazol-2-yl}ethanol], the IC50 in test [1] (setting [3]) was less than 100 nM; in test [2] (setting [4]), 100 to 1000 nM.

Consider `Cc1ccnc(Nc2cccc(-c3cnc(C4CCN(S(C)(=O)=O)CC4)s3)n2)c1` [Compound A-353], for which the concentration for half-maximal inhibition (IC50) in test [1] (setting [3]) and in test [2] (setting [4]) was 100 to 1000 nM each time.
